Results reported in patent publication US20170304168A1, “PHENYL KETONE DERIVATIVES AS SELF-TANNING AGENTS” (MERCK PATENT GmbH, priority 2012, published 2017).

Test system: B16V mouse melanoma cells
Assay: B16 V mouse melanoma cell test (melanin content)
Type: cell-based
Conditions: for Melanin content in pg/B-16V cell: relative to negative control DMSO 0.1% = 100
Method: mouse melanoma cells (manufacturer: DSMZ; Article No.: ACC370) in RPMI medium (Invitrogen, Article No.: 31870), to which 10% of FBS (foetal bovine serum; Invitrogen, Article No.: 10499044), 2 mM L-glutamine (Invitrogen, Article No: 25030) and 1 mM sodium pyruvate (Invitrogen, Article No.: 11360) had additionally been added (=modified RPMI medium), are transferred into a culture flask and incubated at 37° C. and 5% CO2 for 72 h. The medium is separated off, and the cells are washed with 10 ml of D-PBS (Dulbecco's phosphate-buffered salines; Invitrogen, Article No.: 14190) and subsequently removed by suction. 1 ml of HyQtase cell detachment solution (Hyclone, Article No.: SV30030.01) is added to the cells. The bottle is swirled a number of times, and the HyQtase cell detachment solution is subsequently removed by suction. The cells are then incubated in the incubator at 37° C. and 5% CO2 for 5 min. The cells are taken up in the modified RPMI medium (see above), and the cell count is determined. To this end, the cells are stained with Trypan Blue and counted in a Neubauer chamber. The cells are subsequently sown out again in the modified RPMI medium (see above) in a defined cell count of 80,000 cells per well (6-well clear plate, TCT, PS (Nunc)). The cells are incubated at 37° C. and 5% CO2 for 24 h, the medium is then removed. The substance to be investigated (see table below) is subsequenly added in various concentrations. After the final incubation period, the medium is removed by suction, and the cells are washed with 1000 μl of D-PBS (Invitrogen, Article No.: 14190). The medium is again removed by suction. 250 μl of HyQtase cell detachment solution (Hyclone, Article No.: SV30030.01) are added to the cells. The 6-well plate is swirled a number of times, and the HyQtase cell detachment solution is subsequently removed by suction. The cells are then incubated in the incubator at 37° C. and 5% CO2 for 5 min. The cells are taken up in 1.5 ml of DPBS (Invitrogen, Article No.: 14190) and transferred into a cup (SARSTEDT, Ref. 72.692.005). The cell count is subsequently determined. To this end, the cells are stained with Trypan Blue and counted in a NeuBauer chamber. The cells are then centrifuged at 3500 g for 1 min. The pellets obtained are photographed, and the supernatant is subsequently removed by suction. The pellets are dissolved in 1 ml of 1N NaOH at 80° C. for 1 h and then cooled to RT. 200 μl per cup (as quadruple determination) are subsequently pipetted into a 96-well plate (VWR, Article No.: 4100636981), and the absorption at a wavelength of 405 nm is determined (Safire, Tecan). The content of melanin can be determined in this way by means of a calibration line. As comparison with the compounds of the formula I to be investigated, a sample with dimethyl sulfoxide (DMSO) (0.1%) as negative control and a sample with IBMX (200 μm) as positive control are each investigated in parallel. The following tables give the results of the determination of the melanin concentration obtained for the substance dilutions indicated. The results obtained are quoted relative to the negative control with dimethyl sulfoxide (DMSO), whose measurement value is set to 100%. IBMX serves as positive control.

[1] = Test 1, 300 μM (printed 300 µM)

Row | SMILES | Effect on melanogenesis (result in words) (Result of Test 1) | Melanin content in pg/B-16V cell (Test 1, 50 μM) [pg/B-16V cell] | Effect on melanogenesis (result in words) (Result of Test 2) | Melanin content in pg/B-16V cell (Test 2, 100 μM) [pg/B-16V cell] | Melanin content in pg/B-16V cell (Test 2, 500 μM) [pg/B-16V cell] | further results
1 | CC(C)Cn1c(=O)n(C)c(=O)c2[nH]cnc21 [IBMX, reference compound] | – | – | – | – | – | Melanin content in pg/B-16V cell (Test 1, 200 μM (printed 200 µM)): 726 pg/B-16V cell; Melanin content in pg/B-16V cell (Test 2, 200 μM (printed 200 µM)): 338 pg/B-16V cell
2 | CC(=O)c1ccccc1O [Ia, 1-(2-Hydroxyphenyl)ethanone] | promote melanogenesis | 191 | – | – | – | Melanin content in pg/B-16V cell [1]: 429 pg/B-16V cell; Melanin content in pg/B-16V cell (Test 1, 1 mM): 438 pg/B-16V cell
3 | COc1ccccc1C(C)=O [Ib, 1-(2-Methoxyphenyl)ethanone] | promote melanogenesis | 202 | – | – | – | Melanin content in pg/B-16V cell [1]: 318 pg/B-16V cell; Melanin content in pg/B-16V cell (Test 1, 1 mM): 611 pg/B-16V cell
4 | CC(=O)c1c(O)cc(O)cc1O [Ic] | promote melanogenesis | 129 | – | – | – | Melanin content in pg/B-16V cell (Test 1, 100 μM): 144 pg/B-16V cell; Melanin content in pg/B-16V cell (Test 1, 500 μM): 184 pg/B-16V cell
5 | COc1cccc(O)c1C(C)=O [Id, 1-(2-Hydroxy-6-methoxyphenyl)ethanone] | – | – | promote melanogenesis | 275 | 432 | –
6 | COc1ccc(C(C)=O)c(OC)c1 [Ie, 1-(2,4-Dimethoxyphenyl)-ethanone] | – | – | promote melanogenesis | 104 | 121 | –
7 | CC(=O)c1ccccc1N [Ig] | – | – | promote melanogenesis | 133 | 209 | –
8 | COc1cc(OC)c(C(C)=O)c(OC)c1 [Ih] | – | – | promote melanogenesis | 126 | 164 | –
